Laboratory results as given in publication PMC10831071, “Reaction hijacking inhibition of Plasmodium falciparum asparagine tRNA synthetase” (Nature Communications, 2024).
“And” between values parts separate entries of the source, which are not always exact repeats. Equal entries are not always repeated. Where two headings read alike, the source gives them in different places.

What was measured:
[1] = molecular target: PfAsnRS (Plasmodium falciparum, UniProt O96198); experiment: biochemical; settings: for ATP consumption: PfAsnRS
PfAsnRS, sequence (O96198 entry or part of it): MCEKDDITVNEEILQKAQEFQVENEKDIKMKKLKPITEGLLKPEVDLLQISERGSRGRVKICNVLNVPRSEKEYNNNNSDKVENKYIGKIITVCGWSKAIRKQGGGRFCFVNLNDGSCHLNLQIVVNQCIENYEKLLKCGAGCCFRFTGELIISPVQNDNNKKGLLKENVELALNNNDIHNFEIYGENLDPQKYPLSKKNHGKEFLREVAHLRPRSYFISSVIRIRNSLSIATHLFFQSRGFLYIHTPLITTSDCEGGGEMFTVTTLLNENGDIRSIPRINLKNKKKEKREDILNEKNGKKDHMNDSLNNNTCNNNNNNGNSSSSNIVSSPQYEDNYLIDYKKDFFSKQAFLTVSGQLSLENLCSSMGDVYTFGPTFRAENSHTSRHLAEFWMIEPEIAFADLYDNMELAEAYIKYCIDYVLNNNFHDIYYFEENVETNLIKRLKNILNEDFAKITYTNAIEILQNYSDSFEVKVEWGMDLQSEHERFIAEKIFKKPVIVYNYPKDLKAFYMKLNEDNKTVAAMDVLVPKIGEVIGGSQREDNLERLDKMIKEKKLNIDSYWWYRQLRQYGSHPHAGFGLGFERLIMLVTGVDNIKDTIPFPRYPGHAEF

[2] = molecular target: T1, HsAsnRS (Homo sapiens, UniProt O43776); experiment: ATP consumption assay (Kinase-Glo), HsAsnRS; format: biochemical; settings: for ATP consumption: HsAsnRS, normalised to 1 (Fig 3E)
T1 construct: HsAsnRS (residues M1–P548) and CDHsAsnRS (residues A98–P548); His6 (N, cleaved yes); made in house; host or cells: E. coli BL21 (DE3), pET11a
T1 sequence (O43776 1-548): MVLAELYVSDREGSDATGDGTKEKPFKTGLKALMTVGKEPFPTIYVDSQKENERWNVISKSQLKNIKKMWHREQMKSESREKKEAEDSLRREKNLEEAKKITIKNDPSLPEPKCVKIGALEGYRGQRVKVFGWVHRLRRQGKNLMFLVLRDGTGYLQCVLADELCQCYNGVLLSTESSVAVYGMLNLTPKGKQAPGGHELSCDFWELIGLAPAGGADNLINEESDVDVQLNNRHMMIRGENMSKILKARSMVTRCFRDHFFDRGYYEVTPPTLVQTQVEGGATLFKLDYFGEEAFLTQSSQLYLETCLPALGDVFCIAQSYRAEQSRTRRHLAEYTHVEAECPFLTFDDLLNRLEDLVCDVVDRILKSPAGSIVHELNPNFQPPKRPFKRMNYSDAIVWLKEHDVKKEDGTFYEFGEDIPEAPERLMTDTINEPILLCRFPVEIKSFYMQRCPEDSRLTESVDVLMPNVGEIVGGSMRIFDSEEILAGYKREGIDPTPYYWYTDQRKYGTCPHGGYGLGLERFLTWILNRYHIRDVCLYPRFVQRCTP

[3] = system: P. falciparum Cam3.II-rev; experiment: Drug pulse (6 h) viability assay; format: cell-based, Plasmodium falciparum; settings: for IC50: read-out: IC50 (Viability)
Protocol: Viability was assessed in the second cycle by flow cytometry, following labeling with 2 μM Syto-61 (Thermo Fisher Scientific)[48],[49]. Viability represents the parasitemia normalized to untreated and “kill” controls that were treated with 2 μM dihydroartemisinin (DHA; Sigma-Aldrich) for 48–72 h. For drug pulse assays, tightly synchronized Cam3.II-rev[50] parasites (1–1.5% parasitemia, 0.2% final hematocrit) were added to the plates and incubated for 6 h. Drugs were removed and the parasitemia assessed in the trophozoite stage of the next cycle.

[4] = system: protein translation in P. falciparum trophozoites (Cam3.II-rev); experiment: Protein translation assay (OPP incorporation); format: cell-based, Plasmodium falciparum; settings: for Translation: individual experiments, 0 nM = 100; for IC50: read-out: IC50 (Translation)
Protocol: O-propargyl-puromycin (OPP) (Abcam) was added to the culture and incubated for a further 2 h. Parasites were washed three times in 1 × PBS (Gibco™) and fixed with 4% formaldehyde (Polysciences) and 0.02% glutaraldehyde (Sigma) in 1 × PBS for 20 min at room temperature (RT). Cells were washed two times with buffer A (3% human serum in 1 × PBS). Pellets were permeabilized in buffer A containing 0.05% Triton® X-100 and washed two times with buffer A. Fixed-permeabilized cells were subjected to copper-catalyzed azide–alkyne cycloaddition (CuAAC) at 37 °C for 1 h in the presence of 0.1 mM CuSO4, 0.5 mM THPTA, 5 mM sodium ascorbate, and 0.1 μM Alexa Fluor 488 azide in buffer A. Pellets were washed four times in buffer A and resuspended in buffer A containing 25 μg/ml propidium iodide (Invitrogen™). Cells were interrogated by flow cytometry (FACS Canto II; BD Biosciences, San Jose, CA) using FITC and Cy™5.5 channels.

[5] = 78.1 nM, 6 h pulse, individual experiments, 0 nM = 100
[6] = 156.3 nM, 6 h pulse, individual experiments, 0 nM = 100
[7] = 312.5 nM, 6 h pulse, individual experiments, 0 nM = 100
[8] = 625 nM, 6 h pulse, individual experiments, 0 nM = 100
[9] = 1250 nM, 6 h pulse, individual experiments, 0 nM = 100
[10] = 2500 nM, 6 h pulse, individual experiments, 0 nM = 100
[11] = 5000 nM, 6 h pulse, individual experiments, 0 nM = 100
[12] = 10000 nM, 6 h pulse, individual experiments, 0 nM = 100
[13] = 20000 nM, 6 h pulse, individual experiments, 0 nM = 100

NC(=O)C[C@H](N)C(=O)NS(=O)(=O)c1cccc(-c2cc3ncnc(N)c3s2)c1 [Asn-OSM-S-106]
ATP consumption ([1]; 0.005 μM Asn-OSM-S-106, 0 μM = 100 (Fig 3F), 0.005 µM): 96.6227 and 115.849 and 86.517 and 87.5323 | ATP consumption ([1]; 0.05 μM Asn-OSM-S-106, 0 μM = 100 (Fig 3F), 0.05 µM): 102.641 and 101.648 and 126.552 and 109.716 and 83.8806 and 85.0945 | ATP consumption ([1]; 0.1 μM Asn-OSM-S-106, normalised to 1 (Fig 3E), 0.1 µM): 0.9937 and 0.8109 | ATP consumption ([1]; 0.5 μM Asn-OSM-S-106, 0 μM = 100 (Fig 3F), 0.5 µM): 95.6169 and 98.8652 and 117.558 and 102.603 and 76.814 and 78.5601 | ATP consumption ([1]; 1 μM Asn-OSM-S-106, normalised to 1 (Fig 3E), 1 µM): 0.8236 and 0.8406 | ATP consumption ([1]; 3 μM Asn-OSM-S-106, normalised to 1 (Fig 3E), 3 µM): 0.3452 and 0.4265 | ATP consumption ([1]; 10 μM Asn-OSM-S-106, normalised to 1 (Fig 3E), 10 µM): 0.09706 and 0.1733 | ATP consumption ([2]; 0.1 μM Asn-OSM-S-106): 1 and 0.9164 and 0.9986 | ATP consumption ([2]; 0.3 μM Asn-OSM-S-106): 0.9525 and 1 | IC50 ([2]; 0.5 μM enzyme without tRNA (Fig. 3E)): 12000 nM | ATP consumption ([2]; 1 μM Asn-OSM-S-106): 0.8864 and 0.9489 and 0.9329 | ATP consumption ([2]; 3 μM Asn-OSM-S-106): 0.7684 and 0.8281 and 0.785 | ATP consumption ([2]; 10 μM Asn-OSM-S-106): 0.5231 and 0.5272 and 0.5151 | ATP consumption ([2]; 30 μM Asn-OSM-S-106): 0.2926 and 0.3365 and 0.2915 | ATP consumption ([2]; 100 μM Asn-OSM-S-106): 0.09965 and 0.131 and 0.08856

CC1(C)N=C(N)N=C(N)N1OCCCOc1cc(Cl)c(Cl)cc1Cl [WR99210]
Viability [3, 5]: 90.9718 and 69.2733 and 98.7384 | Viability [3, 6]: 76.1805 and 35.562 and 55.9172 | Viability [3, 7]: 32.1885 and 5.756 and 17.0102 | Viability [3, 8]: 6.692 and 4.516 and 3.401 | Viability [3, 9]: 5.505 and 0.4167 and 0.2921 | Viability [3, 10]: 3.52 and 0.4893 and 0.1273 | Viability [3, 11]: 3.786 and 0.4893 and 2.194 | Viability [3, 12]: 2.477 and 1.7781 and 0.09123 | Viability [3, 13]: 0 and 0.969 and 1.737 | Viability ([3]; 40000 nM, 6 h pulse, individual experiments, 0 nM = 100): 3.358 and 0 (2×) | IC50 ([3]; 6 h pulse, viability at trophozoite stage of next cycle): 0.9 nM | Translation ([4]; 78.1 nM, 6 h exposure): 90.9036 and 76.9712 and 89.4018 | Translation ([4]; 156.3 nM, 6 h exposure): 89.4578 and 82.2873 and 81.3601 | Translation ([4]; 312.5 nM, 6 h exposure): 91.0241 and 91.4005 and 91.4867 | Translation ([4]; 625 nM, 6 h exposure): 83.5542 and 90.7751 and 99.6277 | Translation ([4]; 1250 nM, 6 h exposure): 82.5301 and 79.1155 and 98.3867 | Translation ([4]; 2500 nM, 6 h exposure): 84.3976 and 81.0364 and 102.259 | Translation ([4]; 5000 nM, 6 h exposure): 88.5542 and 92.6513 and 94.4155 | Translation ([4]; 10000 nM, 6 h exposure): 97.2892 and 85.5484 and 98.6845 | Translation ([4]; 20000 nM, 6 h exposure): 112.47 and 92.0706 and 98.0392 | Translation ([4]; 40000 nM, 6 h exposure): 103.313 and 81.0364 and 102.259 | IC50 ([4]; 6 h exposure, OPP in last 2 h, Cam3.II-rev trophozoites): > 1000 nM

C[C@@H]1C[C@@H]([C@H](O)CC2CC(=O)NC(=O)C2)C(=O)[C@@H](C)C1 [Cycloheximide]
Viability ([3]; 39.1 nM, 6 h pulse, individual experiments, 0 nM = 100): 97.4339 and 92.233 | Viability [3, 5]: 94.7793 and 98.0583 | Viability [3, 6]: 102.013 and 98.7864 | Viability [3, 7]: 97.9775 and 92.233 | Viability [3, 8]: 92.6066 and 91.9903 | Viability [3, 9]: 79.0045 and 78.3981 | Viability [3, 10]: 100.147 and 80.518 and 75 | Viability [3, 11]: 78.8213 and 75.2427 | Viability [3, 12]: 77.1877 and 75 | Viability [3, 13]: 95.0102 and 69.6652 and 71.1165 | viability at 0.0391 µM ([3]; Plasmodium falciparum, 6 h, 39.1 nM, 6 h pulse, individual experiments, 0 nM = 100): 108% | viability at 0.0781 µM ([3]; Plasmodium falciparum, 6 h, 78.1 nM, 6 h pulse, individual experiments, 0 nM = 100): 95.9% | viability at 0.1563 µM ([3]; Plasmodium falciparum, 6 h, 156.3 nM, 6 h pulse, individual experiments, 0 nM = 100): 109% | viability at 0.3125 µM ([3]; Plasmodium falciparum, 6 h, 312.5 nM, 6 h pulse, individual experiments, 0 nM = 100): 104% | viability at 0.625 µM ([3]; Plasmodium falciparum, 6 h, 625 nM, 6 h pulse, individual experiments, 0 nM = 100): 102% | viability at 1.25 µM ([3]; Plasmodium falciparum, 6 h, 1250 nM, 6 h pulse, individual experiments, 0 nM = 100): 95% | viability at 5 µM ([3]; Plasmodium falciparum, 6 h, 5000 nM, 6 h pulse, individual experiments, 0 nM = 100): 95.1% | viability at 10 µM ([3]; Plasmodium falciparum, 6 h, 10000 nM, 6 h pulse, individual experiments, 0 nM = 100): 88.3% | IC50 ([3]; Plasmodium falciparum, 6 h): > 1000 nM | Translation ([4]; 39.1 nM, 6 h exposure): 91.0615 and 76.2984 and 81.7995 | Translation ([4]; 78.1 nM, 6 h exposure): 81.922 and 88.5493 and 60.1275 | Translation ([4]; 156.3 nM, 6 h exposure): 69.0756 and 65.574 and 56.5841 | Translation ([4]; 312.5 nM, 6 h exposure): 54.5569 and 51.3303 and 54.0173 | Translation ([4]; 625 nM, 6 h exposure): 34.3298 and 36.573 and 53.0328 | Translation ([4]; 1250 nM, 6 h exposure): 29.8359 and 24.3187 and 24.0049 | Translation ([4]; 2500 nM, 6 h exposure): 20.2838 and 21.5354 and 22.6499 | Translation ([4]; 5000 nM, 6 h exposure): 16.1089 and 19.5652 and 16.2965 | Translation ([4]; 10000 nM, 6 h exposure): 8.675 and 13.4553 and 5.495 | Translation ([4]; 20000 nM, 6 h exposure): 7.645 and 6.944 and 4.617 | IC50 ([4]; Plasmodium falciparum): 331 nM

Nc1ncnc2c1ncn2[C@@H]1O[C@H](COS(N)(=O)=O)[C@@H](O)[C@H]1O [AMS, adenosine 5’-O-sulfamate, reference compound]
ATP consumption ([1]; 0.03 μM AMS, normalised to 1 (Fig 3D), 0.03 µM): 0.946 | ATP consumption ([1]; 0.1 μM AMS, normalised to 1 (Fig 3D), 0.1 µM): 0.5414 and 0.637 | ATP consumption ([1]; 0.3 μM AMS, normalised to 1 (Fig 3D), 0.3 µM): 0.3347 and 0.4652 | ATP consumption ([1]; 1 μM AMS, normalised to 1 (Fig 3D), 1 µM): 0.189 and 0.2604 | ATP consumption ([1]; 3 μM AMS, normalised to 1 (Fig 3D), 3 µM): 0.1468 and 0.18 | ATP consumption ([1]; 10 μM AMS, normalised to 1 (Fig 3D), 10 µM): 0.0653 and 0.08191 | ATP consumption ([1]; 30 μM AMS, normalised to 1 (Fig 3D), 30 µM): 0.09691 and 0.0585 | IC50 ([1]; IC50, ATP consumption, 0.05 μM PfAsnRS, E. coli tRNA present, 37 °C, 1 h (Fig. 3C, D)): 190 nM
